Data from publication PMC12767106, “In Situ Assembly of Transformable Monopeptide on Activated Neutrophils Attenuates NETs‐Induced Hepatocellular Carcinoma Metastasis by Disrupting NE Nuclear Translocation” (Advanced Science, 2025).

How the values were obtained:
Format in all cases: cell-based, mouse
Hepa1-6 cells [1] = experiment: Transwell migration and Matrigel invasion assay
Procedure: (§1) Cell migration and invasion assay […]
Cell migration was monitored during the overnight culture of the cells. Hepa1-6/luc cells (5×10^5cells/well) were placed in the upper chamber of an 8µm transwell system and incubated in serum-free DMEM, while various treated media with 20% FBS were added to the lower chamber of 24-well plates. After incubation for 48 h, the transmembrane cells were washed, fixed with 4% paraformaldehyde, stained with crystal violet, and observed under a microscope (Axiovert 200, Zeiss, Germany). All the experiments were performed thrice. The Transwell invasion assay was performed using a similar procedure. Hepa1-6/luc cells (1×10^6cells/well) were seeded in the upper chamber of an 8µm transwell system coated with Matrigel (356231, Corning, New York, USA) and incubated in serum-free DMEM. The remaining operations were performed according to the steps of the migration assay. All the experiments were performed thrice.
(§2) Matrigel tube formation assay
(§3) Murine C166 endothelial cells (3×10^4cells/well) were placed on 96-well plates coated with Matrigel (356231, Corning, New York, USA) and incubated with various treatments. […]
In vitro permeability assays and trans-endothelial invasion assays […]

activated neutrophils = experiment: Recognition of activated versus resting neutrophils, flow cytometry of PpIX; settings: 50 µM, 1 h, neutrophils activated with PMA 100 nM, n = 3
Hepa1-6 cells [2] = experiment: Scratch (wound healing) assay; settings: 24 h, medium from activated neutrophils treated with NPs, mean ± s.d., n = 3
Procedure: Cell migration and invasion assay
To produce cell gaps for cell scratch tests, Hepa1-6/luc cells were injected into culture inserts (IBIDI, Germany).
After 24 hours, the cells were treated with Resting neutrophils, Control, NFTP-NPs, FTP-NPs, and NEi groups.
Cell migration was monitored during the overnight culture of the cells. […]
as §2
Murine C166 endothelial cells (3×10^4cells/well) were placed on 96-well plates coated with Matrigel (356231,
Corning, New York, USA) and incubated with various treatments. […]
(§4) In vitro permeability assays and trans-endothelial invasion assays
For in vitro permeability assays, C166 cells were treated with Resting neutrophils, Control, NFTP-NPs, FTP-
NPs, and NEi groups for 48 h to form an endothelial monolayer, and then Evans Blue (PHYGENE, China) was
added to the upper layer of the transwell filters (0.4 μm, Corning). […]
(§5) All the experiments were performed thrice. […]

Hepa1-6 cells [3] = experiment: Cell proliferation (CCK-8) with medium from treated neutrophils; settings: CCK-8, medium from activated neutrophils treated with NPs; versus Control and NFTP-NPs groups
Procedure: Submitted to Advanced Science
Freshly isolated neutrophils were stimulated with PBS, PMA, PMA+NFTP-NPs, PMA+FTP-NPs, and PMA+NEi for 4 h to stimulate NETs formation. Cells were then centrifuged at 480g for 10 minutes. The supernatant (NETs rich media) was then centrifuged at 18000g for 15 mins to form a pellet. The obtained pellet contained the mixture of chromatins and proteins, which was then resuspended in cell culture media to treat cancer cells, which was collected and respectively named as resting neutrophils, Control, NFTP-NPs, FTP-NPs, and NEi, then stored at -80◦C for further use.
Resting neutrophils (Neu)-treated, Control (Neu+PMA)-treated, NFTP-NPs (Neu+PMA+NFTP-NPs)-treated, FTP-NPs (Neu+PMA+FTP-NPs)-treated, and NEi (Neu+PMA+NEi)-treated Hepa1-6/luc cells and Hepa1-6/luc cells (2×10^3cells/well) were seeded on 96-well plates. Cell proliferation was assessed using the Cell Counting Kit-8 (Biosharp, China) following the manufacturer’s instructions. The final optical density (OD) value was measured daily for 3 consecutive days using a microplate reader at 450 nm (Tecan Infinite M200, Switzerland). Each condition was performed in triplicate. […]

Hepa1-6 cells [4] = experiment: Trans-endothelial invasion assay; settings: 48 h, versus Control group
Procedure: as §1, §2, §3, §4
For in vitro permeability assays, C166 cells were treated with Resting neutrophils, Control, NFTP-NPs, FTP-NPs, and NEi groups for 48 h to form an endothelial monolayer, and then Evans Blue (PHYGENE, China) was added to the upper layer of the transwell filters (0.4 μm, Corning). After 30 min, the medium in the lower layer of the chamber was collected to measure the absorbance at 620 nm (Tecan Infinite M200, Switzerland).
For trans-endothelial invasion assays, […] Hepa1-6/luc cells were seeded into transwell filters (8 μm, Corning) with endothelial cell monolayers pretreated with resting neutrophils, Control, NFTP-NPs, FTP-NPs, and NEi groups. After incubation for 48 h, the transmembrane cells were washed, fixed with 4% paraformaldehyde, stained with crystal violet, and observed under a microscope (Axiovert 200, Zeiss, Germany).
as §5

PpIX-GFFVLK-EAIPMSIPPEVK [FTP-NPs]
number of invasive cells (Hepa1-6 cells [1]; Matrigel-coated transwell, versus Control and NFTP-NPs groups): significantly lower | number of migrating cells (Hepa1-6 cells [1]; transwell, 48 h, versus other control groups): significantly reduced | PpIX fluorescence of activated neutrophils relative to resting neutrophils (activated neutrophils): about 2.8 times | wound healing rate (Hepa1-6 cells [2]): 5.2% ± 1.8% | proliferation rate of Hepa1-6 cells (Hepa1-6 cells [3]): much lower | number of Hepa1-6 cells passing through the endothelial monolayer (Hepa1-6 cells [4]): significantly lower
